Measured values as given in publication PMC3821907, “Synthesis of Novel Compounds as New Potent Tyrosinase Inhibitors” (BioMed Research International, 2013).

Assays:
[1] = tested on: B16F10 mouse melanoma cells; assay: Inhibition of melanin production; type: cell-based; details: 72 h; for inhibition at 20 µg/mL: B16-F10, 20 μg/mL
Method: (§1) Also inhibitions of the compounds 5a–5f were tested on melanin production and their cytotoxicity on B16F10 mouse melanoma cells at concentrations of 20 μg/mL.
Melanin production inhibition was ascertained by method of Wang et al.. A total of 8 × 10^4 cells were added to 60 mm plates and were incubated at 37°C in a CO2 incubator, then, 10 μL test samples in DMSO were added to plates and were incubated for 72 hours at 37°C in a CO2 incubator. After washing with PBS, cells were destroyed with 1 mL of 1 N NaOH, and 200 μL portions of raw cell extracts were moved to 96-well plates. Melanin production inhibition was determined by recording absorbance at 495 nm. The effects of test samples on melanin contents are stated as percent inhibitions of the value obtained in B16F10 mouse melanoma cells which were cultured with DMSO alone.

Cytotoxicity assay (MTT) = type: cell-based; details: B16F10 mouse melanoma cells, read-out: Cytotoxicity cell viability (%)
Method: as §1
Cytotoxicity assays were performed using a microculture MTT method described by Han et al.. A B16F10 mouse melanoma cell suspension was poured into a 96-well plate (10^3 cells/well), and cells were allowed to completely stick […] overnight. Test samples were then added to the plate and were incubated at 37°C for 72 h in a CO2 incubator. 20 μL of MTT solution (2 mg/mL) was then added per well and incubated for 4 hours. Supernatant was then removed, and formazan was solubilized by adding 150 μL DMSO to each well with mild shaking. Absorbance at 490 nm was recorded using an ELISA plate reader.

mushroom tyrosinase = assay: Tyrosinase inhibition assay (diphenolase activity, L-DOPA substrate); type: biochemical; details: L-DOPA 0.5 mM, pH 6.8, 25°C, mean ± SEM, read-out: IC50 ± SEM, tyrosinase inhibitory activity
Method: The spectrophotometric assay for tyrosinase was performed according to the method Ref 15. Briefly, all the synthesized compounds were screened for the diphenolase inhibitory activity of tyrosinase using L-DOPA as substrate. All the compounds were dissolved in DMSO. The final concentration of DMSO in the test solution was 2.0%. Phosphate buffer, pH=6.8, was used to dilute the DMSO stock solution of test compounds. Thirty units of mushroom tyrosinase (0.5 mg/mL) were first preincubated with the compounds, in 50 mM phosphate buffer (pH 6.8), for 10 min at 25°C. Then the L-DOPA (0.5 mM) was added to the reaction mixture, and the enzyme reaction was monitored by measuring the change in absorbance at 475 nm of formation of the L-DOPA chrome for 10 min. The measurement was performed in triplicate for each concentration and averaged before further calculation. […] The percent of inhibition of tyrosinase reaction was calculated as the following: Inhibition (%) = [B−S/B] × 100. Here, the B and S are the absorbances for the blank and samples.

| Compound | melting point | inhibition at 20 µg/mL [1] [%] | viability at 72 h, 20 μg/mL (Cytotoxicity assay (MTT)) [%] | IC50 (mushroom tyrosinase) [nM] | inhibition at 200 µg/mL ([1]; B16-F10, tested at 200 µg/mL) [%] | viability at 72 h, 200 µg/mL (Cytotoxicity assay (MTT); tested at 200 µg/mL) [%] |
| --- | --- | --- | --- | --- | --- | --- |
| Cc1ccc(SC(=O)/C(=C\c2ccc(OC(F)(F)F)cc2)NC(=O)c2ccc(/N=N/c3ccc(N(C)C)cc3)cc2)c(S)c1 [Compound 5b, 4-Methyl-2-sulfanylphenyl(E)-2-[(4-{(E)-2-[4-(dimethylamino)phenyl]-1-diazenyl}benzoyl)amino]-3-[4-(trifluoromethoxy)phenyl]-2-propenethioate] | 286 °C (dec.) | 41 ± 4.33 | 80.1 ± 1.89 | 3860 ± 660 | – | – |
| Cc1ccc(SC(=O)/C(=C\c2ccc(F)cc2)NC(=O)c2ccc(/N=N/c3ccc(N(C)C)cc3)cc2)c(S)c1 [Compound 5a, 4-Methyl-2-sulfanylphenyl(E)-2-[(4-{(E)-2-[4-(dimethylamino)phenyl]-1-diazenyl}benzoyl)amino]-3-(4-fluorophenyl)-2-propenethioate] | 293 °C (dec.) | 42.1 ± 0.75 | 82.2 ± 3.55 | 4390 ± 760 | – | – |
| CC(=O)Oc1ccc2ccccc2c1/N=N/c1ccc(C(=O)N/C(=C/c2ccc(F)cc2)C(=O)Sc2ccc(C)cc2S)cc1 [Compound 5e, 1-[(E)-2-(4-{[((E)-2-(4-fluorophenyl)-1-{[(4-methyl-2-sulfanylphenyl)sulfanyl]carbonyl}-1-ethenyl)amino]carbonyl}phenyl)-1-diazenyl]-2-naphthyl Acetate] | 325 °C (dec.) | 36.8 ± 1.44 | 81.9 ± 1.08 | 1980 ± 390 | – | – |
| O=c1cc(CO)occ1O [Kojic acid, reference compound] | – | – | – | – | 17.3 ± 1.29 | 81.7 ± 1.23 |
| CC(=O)Oc1c(/N=N/c2ccc(C(=O)N/C(=C/c3ccc(OC(F)(F)F)cc3)C(=O)Sc3ccc(C)cc3S)cc2)ccc2ccccc12 [Compound 5d, 2-((E)-2-{4-[({(E)-1-{[(4-Methyl-2-sulfanylphenyl)sulfanyl]carbonyl}-2-[4-(trifluoromethoxy)phenyl]-1-ethenyl}amino)carbonyl]phenyl}-1-diazenyl)-1-naphthyl Acetate] | 318 °C (dec.) | 37.5 ± 4.09 | 84.7 ± 5.38 | 2480 ± 880 | – | – |
| CC(=O)Oc1ccc2ccccc2c1/N=N/c1ccc(C(=O)N/C(=C/c2ccc(OC(F)(F)F)cc2)C(=O)Sc2ccc(C)cc2S)cc1 [Compound 5f, 1-((E)-2-{4-[({(E)-1-{[(4-Methyl-2-sulfanylphenyl)sulfanyl]carbonyl}-2-[4-(trifluoromethoxy)phenyl]-1-ethenyl}amino)carbonyl]phenyl}-1-diazenyl)-2-naphthyl Acetate] | 320 °C (dec.) | 34.7 ± 2.22 | 80.6 ± 2.65 | 1710 ± 490 | – | – |
| CC(=O)Oc1c(/N=N/c2ccc(C(=O)N/C(=C/c3ccc(F)cc3)C(=O)Sc3ccc(C)cc3S)cc2)ccc2ccccc12 [Compound 5c, 2-[(E)-2-(4-{[((E)-2-(4-fluorophenyl)-1-{[(4-methyl-2-sulfanylphenyl)sulfanyl]carbonyl}-1-ethenyl)amino]carbonyl}phenyl)-1-diazenyl]-1-naphthyl Acetate] | 308 °C (dec.) | 35.9 ± 3.11 | 83.2 ± 2.22 | 2680 ± 550 | – | – |
